Test results published in patent US10993937B2, “Composition, for preventing or treating dry eye syndrome, containing polyethylene glycol and flavonoid nanocomposite as active ingredient” (INJE UNIVERSITY INDUSTRY-ACADEMIC COOPERATION FOUNDATION, priority 2017, dated 2021).

How the values were obtained:
NOD.B10.H2^b mouse [1] = assay: Tear production analysis (phenol red-impregnated cotton threads) in mouse model of dry eye syndrome; format: in vivo; details: for amount of tears: 1% eye drops 5 μL five times a day, mean±SD
Method: (§1) Eighty three NOD.B10.H2^b mice (6 weeks old) in total were obtained from the Jackson Laboratory (Bar Harbor, Me., USA) and performed an acclimatization process for 6 to 10 weeks. Mice were kept in a semi-pathogen free (SPF) facility, and feed and water were provided as free feed.
(§2) Six mice were used for histopathological analysis as a baseline. Seventy seven mice were injected subcutaneously four times daily for 10 days with 500 μg/200 μL of scopolamine hydrobromide (Sigma-Aldrich) which is a muscarinic receptor blocker. At this time, the mice were exposed to desiccation stress (DS) for 10 days, including air ventilation by the fan, with an average ambient humidity of 40% or less for 18 hours daily. On day 10 after scopolamine hydrobromide injection and dryness stress exposure, tear production was measured and a photograph of the cornea was taken.
On day 10 of DS, 11 mice were used for histopathological analysis. Sixty six mice were randomly divided into six groups: vehicle (n=11, saline of 5 μL), catechin group (n=11, 1% catechin of 5 μL), CP1 group (n=11, 1% CP1 5 μL), CP5 group (n=11, 1% CP5 5 μL), CP10 group (n=11, 1% CP10 5 μL) and PEG group (n=11, 1% PEG 5 μL). All treatments were performed by injecting five times a day and the amount of tear, corneal disorder and fluorescein scores were measured at baseline, day 10 of DS, and day 3, 5, 7, and 10 after treatment. Hematoxylin and eosin (H&E) and PAS (periodic acid Schiff) staining were performed on the cornea and conjunctiva, respectively. In addition, expression of inflammatory factors associated with immunohistochemical staining in the lacrimal gland was evaluated.
The amount of tears was measured with reference to a previously reported paper (Eye Contact Lens. 2006; 32(6): 272-276). […] The amount of tears was calculated by comparison with a standard curve expressed using a basic solution (1.5 L of 0.9% saline and 5 mL of 5 N sodium hydroxide (NaOH)).

NOD.B10.H2^b mouse [2] = assay: Density of conjunctival goblet cells (PAS staining); format: in vivo; details: after treatment; control 12.86±0.76, dryness stress 6.19±0.16
Method: as §1, §2
(§3) On day 10 of DS, 11 mice were used for histopathological analysis. […] All treatments were performed by injecting five times a day and the amount of tear, corneal disorder and fluorescein scores were measured at baseline, day 10 of DS, and day 3, 5, 7, and 10 after treatment. […] In addition, expression of inflammatory factors associated with immunohistochemical staining in the lacrimal gland was evaluated. […]

VCAM-1 = assay: Immunohistochemistry of lacrimal gland sections, VCAM-1 expression; format: in vivo, mouse; details: versus day 10 of DS and the vehicle-treated group
Method: as §1, §2, §3

NOD.B10.H2^b mouse [3] = assay: Analysis of corneal irregularities (white ring, corneal disorder score); format: in vivo; details: for corneal disorder score: 5-point scale
Method: as §1, §2
(§4) On day 10 of DS, 11 mice were used for histopathological analysis. […] All treatments were performed by injecting five times a day and the amount of tear, corneal disorder and fluorescein scores were measured at baseline, day 10 of DS, and day 3, 5, 7, and 10 after treatment. […] In addition, expression of inflammatory factors associated with immunohistochemical staining in the lacrimal gland was evaluated.
Corneal abnormality was measured with reference to a previously reported paper (Invest Ophthalmol Vis Sci. 2006; 47:2847-2856). […] Corneal smoothness was assessed by grading the irregularity of the corneal epithelial cells reflected in the white ring of the digital image. The reflected ring was divided into quarters and the corneal disorder score was calculated using the 5-point scale based on the number of distorted branches in the reflected ring: 0, no distortion; 1, a quarter of distortion; 2, two-quarters of distortion; 3, three-quarters of distortion; 4, four-quarters of distortion; 5, severe distortion.

IL-1β = assay: Immunohistochemistry of lacrimal gland sections, IL-1β expression; format: in vivo, mouse; details: immunostaining; dryness stress 3.55 times of control
Method: as §1, §2, §3

ICAM-1 = assay: Immunohistochemistry of lacrimal gland sections, ICAM-1 expression; format: in vivo, mouse; details: versus day 10 of DS and the vehicle-treated group
Method: as §1, §2, §3

MMP-9 = assay: Immunohistochemistry of lacrimal gland sections, MMP-9 expression; format: in vivo, mouse; details: compared with the day 10 of DS
Method: as §1, §2, §3

TNF-α = assay: Immunohistochemistry of lacrimal gland sections, TNF-α expression; format: in vivo, mouse; details: immunostaining; dryness stress 2.04 times of control
Method: as §1, §2, §3

NOD.B10.H2^b mouse [4] = assay: Corneal fluorescence staining assay (NEI grading); format: in vivo
Method: as §1
as §2, with “At this time, the mice were exposed to desiccation stress (DS) for 10 days, including air ventilation by the fan, with an average ambient humidity of 40% or less for 18 hours daily.” left out
as §4
Fluorescence staining of the cornea was performed with reference to a previously reported paper (CLAO J. 1995; 21: 221-232). […] Punctate staining was assessed using a standard NEI (national eye institute) grading system with scores of 0 to 3 on each of the five areas of the cornea.

IL-6 = assay: Immunohistochemistry of lacrimal gland sections, IL-6 expression; format: in vivo, mouse; details: immunostaining; dryness stress 4.02 times of control
Method: as §1, §2, §3

IL-17 = assay: Immunohistochemistry of lacrimal gland sections, IL-17 expression; format: in vivo, mouse; details: immunostaining; dryness stress 15.35 times of control
Method: as §1, §2, §3

catechin
amount of tears (NOD.B10.H2^b mouse [1]; after 3 days of treatment): 0.08 ± 0.03 µL
amount of tears (NOD.B10.H2^b mouse [1]; after 5 days of treatment): 0.13 ± 0.01 µL
days of treatment after which tear production recovered to the baseline level (NOD.B10.H2^b mouse [1]; baseline 0.16±0.02 μL): 5 days
number of conjunctival goblet cells (NOD.B10.H2^b mouse [2]): 9.71±1.25 /0.1 mm^2
expression of VCAM-1, effect in words (VCAM-1): did not show statistically significant difference
day after treatment on which white rings on the corneal surface were observed (NOD.B10.H2^b mouse [3]; FIG. 2A, microscopic image): 10 days
corneal disorder score (NOD.B10.H2^b mouse [3]; day 7 after treatment, vehicle 3.63±0.48): 2.88±0.48
corneal disorder score (NOD.B10.H2^b mouse [3]; day 10 after treatment): 2.38±0.47
expression of IL-1β in the lacrimal gland (IL-1β): no statistically significant difference with day 10 of DS
expression of ICAM-1, effect in words (ICAM-1): did not show statistically significant difference
expression of MMP-9, effect in words (MMP-9): significantly decreased the MMP-9 expression but did not recover to the control level
expression of TNF-α in the lacrimal gland (TNF-α): no statistically significant difference with day 10 of DS
corneal fluorescence staining score (NOD.B10.H2^b mouse [4]; day 7 after treatment, vehicle 10.00±1.00): 6.67±0.58
corneal fluorescence staining score (NOD.B10.H2^b mouse [4]; day 10 after treatment): 3.67±0.58
expression of IL-6 in the lacrimal gland (IL-6): no statistically significant difference with day 10 of DS
IL-17 expression in the lacrimal gland (IL-17): significantly decreased IL-17 expression
